Measurements taken from publication PMC11695783 (Frontiers in Pharmacology, 2024).
Several values for one entry are separate records, joined by “and”; a condition that tells them apart may be missing. Equal entries are not always repeated.

Tests used:
Assay type in all cases: in vivo, BALB/c mice
CXCL1 = CXCL1 in BALF of M. pneumoniae-infected mice (ELISA); settings: for CXCL1 in BALF (AV): group AV; for CXCL1 in BALF: individual mice
Procedure: (§1) Adult BALB/c mice (20–22 g) were divided into a control group, a positive group, and compound 16C groups at low (20 mg/kg), medium (40 mg/kg), and high-dose (80 mg/kg) levels and oral and intramuscular tiamulin treatment groups (40 mg/kg). We formulated the above dose range based on the dose at which tiamulin was approved for injection (10–20 mg/kg) and the dose previously reported (45 mg/kg) ([EMA, 1999]; [Xiao et al., 2016]). In summary, we selected similar doses for compound 16C in vivo study. 40 mg/kg was used as an intermediate value, one-half of it as a low dose, and two times of it as a high dose. To prepare the challenge solution, logarithmic phase culture suspensions were centrifuged at 1700 g for 10 min, and the pellets were suspended in sterile PBS to obtain 1 × 10^9 CFU/mL. Before the challenge, mice were anesthetized with tribromoethanol (250 mg/kg, IP). Mice in the control groups were intratracheally inoculated with sterile PBS, whereas mice in the other groups were intratracheally challenged with 50 μL (1 × 10^9 CFU/mL) M. pneumoniae suspension once a day for 3 days. Compound 16C and tiamulin (tiamulin-IM group) dissolved using the method mentioned in pharmacokinetic studies, and the tiamulin fumarate soluble powder was dissolved in ddH2O for oral administration. After the final challenge, antibiotics were administered at low, medium, and high-dose levels (see above) at 10 a.m. and 10 p.m. daily for 4 consecutive days. Normal saline containing 5% DMSO and 5% Tween-80 was administered as control and positive groups by thigh intramuscular injection. To compare the efficacy of compound 16C and tiamulin under the same route of administration, we used the original tiamulin for intramuscular administration in the same formulation. On the other hand, tiamulin fumarate soluble powder, approved for oral administration to treat animal mycoplasma diseases in China, was administered to mice by gavage. Based on a clinical study of lefamulin in community-acquired bacterial pneumonia (CABP), subjects were administered twice a day and the 96 ± 24 h of starting treatment was an essential point for early clinical response (ECR) ([Paukner et al., 2022]). We therefore stopped treatment at 96 h and sampled at 192 h to explore whether the disease worsened after cessation of treatment. Bronchoalveolar lavage fluid (BALF) and lungs were collected at 0, 96, 192 h (Samples of 0 h were collected before starting treatment, and mice were fed ad libitum without drug treatment during 96–192 h) after the first dose, BALF for cytokine and cytological analysis and lung for histopathological evaluation.
(§2) Bronchoalveolar lavage was performed according to a standardized method ([Van Hoecke et al., 2017]). BALF was obtained following infusion of 0.5 mL PBS via tracheal cannulation into the lung twice (total 1 mL), and 200 µL was used for mycoplasma counts. The remaining BALF was centrifuged at 300 g for 10 min to separate the debris. The supernatants were stored at −80°C, and the debris was resuspended in the same volume of PBS containing red blood cell lysis buffer. A hemocytometer was used to count total cell numbers in BALF, and cell smears (Diff-Quik staining) were prepared to calculate the percentages of neutrophils, macrophages, and lymphocytes. IFN-γ, TNF-α, and CXCL1 levels in BALF samples were assessed using commercial ELISA kits using guidelines recommended by the manufacturer (Elabscience, Wuhan, China). Parallel data for each experimental group at each time point were obtained from six different mice.

[1] = system: inflammatory cells in BALF (neutrophils, macrophages, lymphocytes); experiment: Inflammatory cell analysis in BALF of M. pneumoniae-infected mice; settings: for number of cells in BALF four days following treatment cessation: 192 h, similar to control group (P> 0.05)
Procedure: as §1, §2

TNF-α = TNF-α in BALF of M. pneumoniae-infected mice (ELISA); settings: for TNF-α in BALF (AV): group AV; for TNF-α in BALF: individual mice
Procedure: as §1, §2

[2] = tiamulin 40 mg/kg IM, 96 h, listed as Tiamulin-IM
[3] = tiamulin 40 mg/kg IM, 192 h, listed as Tiamulin-IM
[4] = tiamulin 40 mg/kg PO (fumarate soluble powder), 96 h
[5] = tiamulin 40 mg/kg PO (fumarate soluble powder), 192 h
[6] = Tiamulin(40mg/kg) group, time 0
[7] = Tiamulin(40mg/kg) group, time 96
[8] = Tiamulin(40mg/kg) group, time 192
[9] = compound 16C 20 mg/kg IM, 192 h
[10] = compound 16C 40 mg/kg IM, 192 h
[11] = compound 16C 80 mg/kg IM, 192 h

## C=C[C@]1(C)C[C@@H](OC(=O)CSCCN(CC)CC)[C@]2(C)[C@H](C)CC[C@]3(CCC(=O)[C@H]32)[C@@H](C)[C@@H]1O [tiamulin, Tiamulin, reference compound]
CXCL1; [2]
  CXCL1 in BALF (AV): 35.2692 pg/mL
  CXCL1 in BALF: 32.338 pg/mL and 47.9047 pg/mL and 25.7589 pg/mL and 33.1238 pg/mL and 37.221 pg/mL
CXCL1; tiamulin 40 mg/kg IM, 192 h
  CXCL1 in BALF (AV): 47.4109 pg/mL
CXCL1; [3]
  CXCL1 in BALF: 47.2576 pg/mL and 36.3942 pg/mL and 46.6093 pg/mL and 59.3827 pg/mL
CXCL1; [4]
  CXCL1 in BALF (AV): 40.932 pg/mL
CXCL1; [5]
  CXCL1 in BALF (AV): 46.955 pg/mL
[1]; [6]
  cell counts, total (AV): 30.4125 n*10^5
  cell counts, 中 (neutrophils) (AV): 26.5281 n*10^5
  cell counts, 巨 (macrophages) (AV): 3.545 n*10^5
  cell counts, 淋 (lymphocytes) (AV): 0.3394 n*10^5
[1]; [7]
  cell counts, total (AV): 9.854 n*10^5
  cell counts, 中 (neutrophils) (AV): 1.672 n*10^5
  cell counts, 巨 (macrophages) (AV): 3.529 n*10^5
  cell counts, 淋 (lymphocytes) (AV): 4.653 n*10^5
[1]; [8]
  cell counts, total (AV): 10.35 n*10^5
  cell counts, 中 (neutrophils) (AV): 0.1129 n*10^5
  cell counts, 巨 (macrophages) (AV): 3.034 n*10^5
  cell counts, 淋 (lymphocytes) (AV): 7.204 n*10^5
[1]; tiamulin intramuscular 40 mg/kg, 96 h
  total number of inflammatory cells in BALF compared with the positive controls: significantly lower
[1]; tiamulin intramuscular 40 mg/kg
  number of cells in BALF four days following treatment cessation: lower than that of the positive control
[1]; tiamulin orally administered 40 mg/kg, 96 h
  total number of inflammatory cells in BALF compared with the positive controls: not statistically significant
TNF-α; [2]
  TNF-α in BALF (AV): 25.628 pg/mL
  TNF-α in BALF: 36.6513 pg/mL and 20.2192 pg/mL and 19.4095 pg/mL and 27.905 pg/mL and 23.325 pg/mL and 26.258 pg/mL
TNF-α; tiamulin 40 mg/kg IM, 96 h, listed as TiamulinIM
  TNF-α in BALF (AV): 25.4267 pg/mL
TNF-α; tiamulin 40 mg/kg IM, 192 h
  TNF-α in BALF (AV): 10.6403 pg/mL
TNF-α; [3]
  TNF-α in BALF: 0.9088 pg/mL and 8.569 pg/mL and 21.5375 pg/mL and 21.2768 pg/mL
TNF-α; [4]
  TNF-α in BALF (AV): 17.9906 pg/mL
TNF-α; [5]
  TNF-α in BALF (AV): 9.318 pg/mL

## C=CC1(C)CC(OC(=O)CSc2ccc(NC(=O)Cc3ccc([N+](=O)[O-])cc3)cc2)C2(C)C(C)CCC3(CCC(=O)C32)C(C)C1O (stereo not drawn) [compound 16C, 22–((4-((4-nitrophenyl)acetamido)phenyl)thio)deoxypleuromutilin]
CXCL1; compound 16C 20 mg/kg IM, 96 h
  CXCL1 in BALF (AV): 48.0123 pg/mL
  CXCL1 in BALF: 56.3478 pg/mL and 48.458 pg/mL and 47.2524 pg/mL and 45.2286 pg/mL and 42.7748 pg/mL
CXCL1; [9]
  CXCL1 in BALF (AV): 38.192 pg/mL
  CXCL1 in BALF: 48.0568 pg/mL and 31.7563 pg/mL and 40.2912 pg/mL and 33.499 pg/mL and 37.352 pg/mL and 38.1966 pg/mL
CXCL1; compound 16C 40 mg/kg IM, 96 h
  CXCL1 in BALF (AV): 22.7681 pg/mL
  CXCL1 in BALF: 15.9622 pg/mL and 24.4156 pg/mL and 34.1197 pg/mL and 28.066 pg/mL and 17.0225 pg/mL
CXCL1; [10]
  CXCL1 in BALF (AV): 28.9333 pg/mL
  CXCL1 in BALF: 23.476 pg/mL and 20.5799 pg/mL and 29.3957 pg/mL and 43.4026 pg/mL and 16.4951 pg/mL and 40.2505 pg/mL
CXCL1; compound 16C 80 mg/kg IM, 96 h
  CXCL1 in BALF (AV): 24.5788 pg/mL
  CXCL1 in BALF: 33.6631 pg/mL and 23.7534 pg/mL and 35.719 pg/mL and 18.1872 pg/mL and 17.5299 pg/mL and 18.6204 pg/mL
CXCL1; [11]
  CXCL1 in BALF (AV): 39.611 pg/mL
  CXCL1 in BALF: 45.7844 pg/mL and 28.8637 pg/mL and 42.9442 pg/mL and 41.3398 pg/mL and 45.9405 pg/mL and 32.7936 pg/mL
[1]; 20mg/kg, time 0
  cell counts, total (AV): 48.3833 n*10^5
  cell counts, 中 (neutrophils) (AV): 42.2036 n*10^5
  cell counts, 巨 (macrophages) (AV): 5.64 n*10^5
  cell counts, 淋 (lymphocytes) (AV): 0.5399 n*10^5
[1]; 20mg/kg, time 96
  cell counts, total (AV): 8.192 n*10^5
  cell counts, 中 (neutrophils) (AV): 1.83 n*10^5
  cell counts, 巨 (macrophages) (AV): 3.157 n*10^5
  cell counts, 淋 (lymphocytes) (AV): 3.205 n*10^5
[1]; 20mg/kg, time 192
  cell counts, total (AV): 2.917 n*10^5
  cell counts, 中 (neutrophils) (AV): 1.486 n*10^5
  cell counts, 巨 (macrophages) (AV): 0.8746 n*10^5
  cell counts, 淋 (lymphocytes) (AV): 0.5558 n*10^5
[1]; 40mg/kg, time 0
  cell counts, total (AV): 47.0528 n*10^5
  cell counts, 中 (neutrophils) (AV): 40.6758 n*10^5
  cell counts, 巨 (macrophages) (AV): 4.508 n*10^5
  cell counts, 淋 (lymphocytes) (AV): 1.869 n*10^5
[1]; 40mg/kg, time 96
  cell counts, total (AV): 7.083 n*10^5
  cell counts, 中 (neutrophils) (AV): 2.373 n*10^5
  cell counts, 巨 (macrophages) (AV): 2.398 n*10^5
  cell counts, 淋 (lymphocytes) (AV): 2.312 n*10^5
[1]; 40mg/kg, time 192
  cell counts, total (AV): 3.683 n*10^5
  cell counts, 中 (neutrophils) (AV): 1.76 n*10^5
  cell counts, 巨 (macrophages) (AV): 0.9141 n*10^5
  cell counts, 淋 (lymphocytes) (AV): 1.009 n*10^5
[1]; 80mg/kg, time 0
  cell counts, total (AV): 35.9167 n*10^5
  cell counts, 中 (neutrophils) (AV): 31.0489 n*10^5
  cell counts, 巨 (macrophages) (AV): 3.441 n*10^5
  cell counts, 淋 (lymphocytes) (AV): 1.427 n*10^5
[1]; 80mg/kg, time 96
  cell counts, total (AV): 2.675 n*10^5
  cell counts, 中 (neutrophils) (AV): 0.2904 n*10^5
  cell counts, 巨 (macrophages) (AV): 0.8707 n*10^5
  cell counts, 淋 (lymphocytes) (AV): 1.514 n*10^5
[1]; 80mg/kg, time 192
  cell counts, total (AV): 2.742 n*10^5
  cell counts, 中 (neutrophils) (AV): 0.4795 n*10^5
  cell counts, 巨 (macrophages) (AV): 1.166 n*10^5
  cell counts, 淋 (lymphocytes) (AV): 1.096 n*10^5
[1]; compound 16C 20, 40, and 80 mg/kg dose groups
  number of cells in BALF four days following treatment cessation: lower than that of the positive control
[1]; compound 16C low-dose (20 mg/kg IM), after 4 days of treatment (96 h)
  total number of inflammatory cells in BALF compared with the positive controls: not statistically significant
TNF-α; compound 16C 20 mg/kg IM, 96 h
  TNF-α in BALF (AV): 60.6586 pg/mL
  TNF-α in BALF: 156.929 pg/mL and 49.4117 pg/mL and 56.9942 pg/mL and 23.2695 pg/mL and 42.5167 pg/mL and 34.8302 pg/mL
TNF-α; [9]
  TNF-α in BALF (AV): 1.835 pg/mL
  TNF-α in BALF: 1.8363 pg/mL and 1.566 pg/mL and 2.372 pg/mL and 2.105 pg/mL and 1.293 pg/mL
TNF-α; compound 16C 40 mg/kg IM, 96 h
  TNF-α in BALF (AV): 10.1817 pg/mL
  TNF-α in BALF: 13.0051 pg/mL and 8.3889 pg/mL and 8.57 pg/mL and 9.454 pg/mL and 9.28 pg/mL and 12.3919 pg/mL
TNF-α; [10]
  TNF-α in BALF (AV): 8.528 pg/mL
  TNF-α in BALF: 8.021 pg/mL and 8.206 pg/mL and 7.835 pg/mL and 9.798 pg/mL and 9.105 pg/mL
TNF-α; compound 16C 80 mg/kg IM, 96 h
  TNF-α in BALF (AV): 10.9013 pg/mL
  TNF-α in BALF: 5.596 pg/mL and 10.365 pg/mL and 13.376 pg/mL and 12.1685 pg/mL and 14.3215 pg/mL and 9.581 pg/mL
TNF-α; [11]
  TNF-α in BALF (AV): 10.3825 pg/mL
  TNF-α in BALF: 8.923 pg/mL and 7.924 pg/mL and 10.8189 pg/mL and 12.996 pg/mL and 10.1697 pg/mL and 11.4637 pg/mL
